In assay [1] the test system is CCRF-CEM cells. Briefly: Nucleotides pool measurements. The conditions noted are these: 24 h, dT 200 µM, dC 1 µM, OR0642 1 µM. Type of assay: cell-based, human. As for the experimental part:
CCRF-CEM cells exposed to compounds (dT (200 µM) and/or dC, OR0642, DI-87 and DI-39 (1 µM)) for 0 and 24 h were washed, counted and pelleted. Pellets were extracted with the cold sampling solution (acetonitrile (4) / methanol (4)/125 mM formic acid (2)), vortexed and placed 1 h at −20 °C. Then centrifuged and evaporated. Central metabolites were separated on an ionic chromatography column IonPac AS11 (250 × 2 mm i.d.; Dionex). Solvent used was KOH at a flow rate of 350 µl/min. The column was then equilibrated for 6 min at the initial conditions before the next sample was analyzed. The volume of injection was 15 µl. High-resolution experiments were performed with an ICS5000+, ion chromatography system (Dionex) system coupled to an Orbitrap Qexactive+ mass spectrometer (Thermo Fisher Scientific, Waltham) equipped with a heated electrospray ionization probe. MS analyses were performed in negative FTMS mode at a resolution of 140,000 (at 400 m/z) in full-scan mode, with the following source parameters: 325 °C for the capillary temperature, 380 °C for the source heater temperature, 50 a.u. (arbitrary unit) for the sheath gas flow rate, 5 a.u. for the auxiliary gas flow rate, 50% for the S-Lens RF level, and 2.75 kV for the source voltage. Metabolites were determined by extracting the exact mass with a tolerance of 5 ppm. Each experiment was performed three times.

Assay [2] has as its system CCRF-CEM cells. The assay can be described thus: Annexin V apoptosis assay. The format is cell-based, human. The conditions noted are these: 72 h, dT 200 µM, others 1 µM, presence of dC. As for the experimental part:
CCRF-CEM cells were seeded at 100,000 cells/ml, and treated with DMSO (0.01%) as vehicle control or dT (200 μΜ), and/or dC, OR0642, DI-87 and DI-39 (1 μΜ). For cell cycle analysis, cells were harvested after 24 h, fixed in 4% paraformaldehyde, permeabilized with 0.15% Triton X100, and DNA content was determined using 1 μg/ml DAPI. For apoptosis assay, cells were harvested after 72 h and cell death was assayed using Annexin V-APC and 7AAD following manufacturer’s instructions (Biolegend, 640930). For γH2A.X measurements, cells were harvested after 24 h, fixed in 4% paraformaldehyde and permeabilized with 0.15% Triton X100. Then, cells were stained with the phospho-H2AX (pS139 H2AX, Biolegend, 613402, 1:1000) specific primary antibody, Alexa-Fluor 488 secondary antibody (ThermoFisher, A21202, 1:1000) and DAPI. All acquisitions were performed on a BD Fortessa cytometer, and analysis of flow cytometry data was performed using FlowJo™ Software 10.7.1 (BD Life Sciences). Each experiment was performed three times. Figures exemplifying the gating strategy are provided in the Supplementary Information (Supplementary Figs. 29–31).

Assay [3] relates to human CCRF-CEM T-ALL cell line expressing luciferase. Briefly: Systemic leukemia model: NSG mice inoculated intravenously with luciferase CCRF-CEM cells.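 As to hCD45+ populations determined by flux cytometry at day 21 of CCRF-CEM bearing mice: Bead-counted human ALL blasts per volume of peripheral blood.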 The format is in vivo, mouse. The arrangement: hCD45+ populations determined by flux cytometry at day 21 of CCRF-CEM bearing mice / Whole body radiance of CCRF-CEM bearing mice: unit not given here. The conditions noted are these: for effect on leukemic progression: dT 1.5 g/kg, OR0642 40 mg/kg IP; for Whole body radiance of CCRF-CEM bearing mice / hCD45+ populations determined by flux cytometry at day 21 of CCRF-CEM bearing mice / Whole body radiance at day 21 of CCRF-CEM bearing mice / Survival days of CCRF-CEM bearing mice: dT 1,5 g/Kg, OR0642 40 mg/Kg; for hCD45+ populations determined by flux cytometry at day 21 of CCRF-CEM bearing mice: day 21, blood; for Whole body radiance at day 21 of CCRF-CEM bearing mice: day 21, individual mice (Figure 4d).

The target in assay [4] is dCK-C3S-S74E. The assay can be described thus: Isothermal titration calorimetry (ITC). Particulars: 25 °C. Type of assay: binding, human. The text has this: BL21 pRIL Escherichia coli cells were transformed with dCK-plasmids (dCK-C4S-S74E (for crystallization assays) and dCK-C3S-S74E (for TSA, enzymatic and ITC assays)). Protein dCK-C4S-S74E used for crystallization assays contained four mutations in order to generate better quality crystals (four solvent-exposed cysteine residues were mutated to serine; C9S, C45S, C59S and C146S). Protein dCK-C3S-S74E used for other assays contained only three mutated cysteines. The S74E mutation mimics the phosphorylated state of this serine, which favors the open conformation of the enzyme, making it competent for nucleoside binding[45] to evaluate the binding affinity with compounds. E. coli cells were grown in LB media containing 100 μg/ml ampicillin and 34 μg/ml chloramphenicol at 18 °C for 20 h after induction with 1 mM IPTG.
For binding assays (TSA, ITC and crystallography) cells were re-suspended in 50 mM TRIS, pH 8, 500 mM NaCl, 30 mM imidazole and 10% glycerol buffer and one EDTA free anti-protease tablet was added (Roche). After sonication and centrifugation (30,000 × g), the supernatant was loaded on a 5 ml HisTrap FF column (GE healthcare) pre-equilibrated with resuspension buffer. Protein was then eluted by resuspension buffer containing 500 mM imidazole. Protein eluted fractions were mixed and concentrated. […]
A general note: Isothermal titration calorimetry measures the heat released or taken up as one component is titrated into another.

Each structure is given as a SMILES string. Values joined by “and” are separate entries in the source; they are usually repeats but may differ in a detail not shown here. Identical values can stand only once.

dCK-C3S-S74E, sequence (P27707 whole entry S74E, form open): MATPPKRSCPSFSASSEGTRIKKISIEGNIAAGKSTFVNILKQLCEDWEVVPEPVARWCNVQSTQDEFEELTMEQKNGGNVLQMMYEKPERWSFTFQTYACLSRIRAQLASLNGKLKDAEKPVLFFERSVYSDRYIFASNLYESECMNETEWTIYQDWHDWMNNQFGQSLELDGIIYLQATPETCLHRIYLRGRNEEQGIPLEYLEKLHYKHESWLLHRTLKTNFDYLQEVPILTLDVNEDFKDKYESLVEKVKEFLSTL

Consider `CCCN(c1nc(-c2nc(N)cc(N)n2)cs1)c1cc(-c2ccc(S(=O)(=O)N3CCN(C)CC3)cc2C(F)(F)F)ccc1C` [OR0642], for which the “effect on nucleotide pools” value in assay [1] is listed as “did not affect the nucleotide pools”. The “apoptosis, Annexin V staining” value in assay [2] is reported as “neither dT nor OR0642 alone induced DNA damage or apoptosis”. Further, the “effect on leukemic progression” value in assay [3] is on record as “did not show any antiproliferative effect”. Further, the “Whole body radiance of CCRF-CEM bearing mice” value in assay [3] (day 0 (before treatment), individual mice, 40 mg/kg) was 1948 and 1585 and 1112 and 1289 and 1143 and 2120 and 1563 and 1766 and 1453; in assay [3] (day 7, individual mice, 40 mg/kg), 5130 and 1470 and 1540 and 826 and 1990 and 2090 and 4750 and 1530 and 2610; in assay [3] (day 14, individual mice, 40 mg/kg) it was 392000 and 24500 and 395000 and 489000 and 137000 and 327000 and 469000 and 291000 and 53900; in assay [3] (day 21, individual mice (Figure 4b), 40 mg/kg), 2070000 and 4600000 and 1490000 and 6950000 and 1760000 and 5460000 and 5470000 and 5010000 and 3010000. Besides, the “hCD45+ populations determined by flux cytometry at day 21 of CCRF-CEM bearing mice” value in assay [3] (individual mice, 40 mg/kg) is 216.1 and 194.2 and 86.4 and 80.1 and 74.9 and 211.8 and 120.7 and 113.3 and 112.2. In assay [3] (40 mg/kg), the “Whole body radiance at day 21 of CCRF-CEM bearing mice” value was 2180000 and 4850000 and 1550000 and 7340000 and 1840000 and 5680000 and 5590000 and 4590000 and 3150000. The “Survival days of CCRF-CEM bearing mice” value in assay [3] (individual mice, 40 mg/kg) was 25 days and 26 days and 27 days.
For the molecule `Cc1ccc(NC(=O)c2ccc(CN3CCN(C)CC3)cc2)cc1Nc1nc(-c2nccc(N)n2)cs1` [dCKi1], the Kd (as a rule, the concentration at which binding is half-saturated) in assay [4] came out at 128 nM.
Consider `Cc1ccc(NC(=O)c2ccc(CN3CCN(C)CC3)cc2)cc1Nc1nc(-c2nc(N)cc(N)n2)cs1` [dCKi2, N-(3-((4-(4,6-diaminopyrimidin-2-yl)thiazol-2-yl)amino)-4-methylphenyl)-4-((4-methylpiperazin-1-yl)methyl)benzamide], for which binding in assay [4] was characterised by a dissociation constant (Kd) of 37 nM.
Consider `Cc1cn([C@H]2C[C@H](O)[C@@H](CO)O2)c(=O)[nH]c1=O` [dT, thymidine], for which the “effect on nucleotide pools” value in assay [1] is reported as “increased the dTTP pool”. In assay [2], the “apoptosis, Annexin V staining” value is “neither dT nor OR0642 alone induced DNA damage or apoptosis”. Further, the “effect on leukemic progression” value in assay [3] was “scarcely reduced leukemic progression”. In addition, the “Whole body radiance of CCRF-CEM bearing mice” value in assay [3] (day 0 (before treatment), individual mice) is 2430 and 1179 and 1269 and 2044 and 1251 and 1181 and 1090; in assay [3] (day 7, individual mice) it was 1580 and 1140 and 2350 and 2150 and 1440 and 1960 and 2210; in assay [3] (day 14, individual mice), 94100 and 37700 and 196000 and 167000 and 8080 and 182000 and 106000; in assay [3] (day 21, individual mice (Figure 4b)), 1150000 and 1620000 and 2390000 and 1910000 and 1880000 and 520000 and 953000. For the same molecule, in assay [3] (individual mice), the “hCD45+ populations determined by flux cytometry at day 21 of CCRF-CEM bearing mice” value was 24.2 and 22.7 and 31.6 and 8.9 and 23.4 and 14.2. The “Whole body radiance at day 21 of CCRF-CEM bearing mice” value in assay [3] was 1720000 and 2530000 and 2010000 and 1980000 and 545000 and 1000000 and 1210000. In assay [3] (individual mice), the “Survival days of CCRF-CEM bearing mice” value is 28 days and 29 days and 30 days.

For the origin of these results see paper PMC10227015, “From a drug repositioning to a structure-based drug design approach to tackle acute lymphoblastic leukemia” (Nature Communications, 2023).
